Series [1] addresses T1, human amnionic whole cell cyclooxygenase-2 (WISH cells) (Homo sapiens, UniProt P35354).
T1 construct: endogenous in cells; host or cells: human amnionic WISH cells, induced with IL-1beta
T1 sequence (P35354 18-604): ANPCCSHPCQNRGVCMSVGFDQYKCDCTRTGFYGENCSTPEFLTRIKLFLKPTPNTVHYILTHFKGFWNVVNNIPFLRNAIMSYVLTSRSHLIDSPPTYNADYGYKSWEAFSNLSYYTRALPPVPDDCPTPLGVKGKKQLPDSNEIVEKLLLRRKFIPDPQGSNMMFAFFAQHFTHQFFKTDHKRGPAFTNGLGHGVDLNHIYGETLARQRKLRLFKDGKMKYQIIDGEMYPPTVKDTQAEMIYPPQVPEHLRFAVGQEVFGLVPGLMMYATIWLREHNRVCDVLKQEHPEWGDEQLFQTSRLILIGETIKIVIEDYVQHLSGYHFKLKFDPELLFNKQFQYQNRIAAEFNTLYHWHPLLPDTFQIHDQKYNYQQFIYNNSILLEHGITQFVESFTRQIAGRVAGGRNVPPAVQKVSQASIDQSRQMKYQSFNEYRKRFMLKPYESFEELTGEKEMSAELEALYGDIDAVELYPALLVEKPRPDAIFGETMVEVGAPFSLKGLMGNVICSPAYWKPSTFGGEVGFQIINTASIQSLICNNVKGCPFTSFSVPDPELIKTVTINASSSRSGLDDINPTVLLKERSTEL
In words: IL-1β induced PGE2 production in WISH cells. In kind it is cell-based. As to conditions: for IC50: read-out: Wish IC50 (parenthetical value); for inhibition at 0.01 µM / inhibition at 1 µM / inhibition at 0.1 µM: read-out: Wish % Inhib. at Dose. The procedure:
EIA reagents for prostaglandin determination were purchased from Perseptive Diagnostics, (Cambridge, Mass.). Prostaglandin E2 (PGE2) levels in lavage fluids were determined after the samples were dried under nitrogen and reconstituted with assay buffer. PGE2 levels in enzyme assays or cell culture media were measured against standards prepared in the same milieu. The immunoassays were conducted as recommended by the manufacturer. The EIA was conducted in 96 well microtiter plates (Nunc Roskilde, Denmark) and optical density was measured using a microplate reader (Vmax, Molecular Devices Corp., Menlo Park, Calif.).
Human amnionic WISH cells were grown to 80% confluence in 48 well plates. Following removal of the growth medium and two washings with Geys Balanced Salt Solutn, 5 ng IL-1β /ml (UBI, Lake Placid, N.Y.) was added to the cells with or without test compound in DMSO (0.01% v/v) in Neuman-Tytell Serumless Medium (GIBCO, Grand Island, N.Y.).

The target of series [2] is T2, recombinant human Cox-2 (r-hu Cox-2) (Homo sapiens, UniProt P35354).
T2 construct: made in house; host or cells: baculovirus/Sf9 insect cells (microsomes)
T2 sequence (P35354 18-604): T1 sequence (P35354 18-604)
In words: Recombinant human PGHS-2 enzyme assay (RHUCX2). It is filed as biochemical. The note with it: for IC50: read-out: RHUCX2 IC50 (parenthetical value). The procedure, abridged: (§1)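 PGE2 by EIA (optical density) → % inhibition vs control-group mean → IC50 from linear regression.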

Series [3] has as its target T3, recombinant human Cox-1 (r-hu Cox1) (Homo sapiens, UniProt P23219).
T3 construct: made in house; host or cells: baculovirus/Sf9 insect cells (microsomes)
In words: Recombinant human PGHS-1 enzyme assay (RHUCX1). It is filed as biochemical. As to conditions: 100 μM; read-out: RHUCX1 % Inh. at Dose. A digest of the protocol: as §1

The mark [4] stands for this setting: read-out: RHUCX2 % Inh. at Dose.

From patent US20020028938A1, “Prostaglandin endoperoxide H synthase biosynthesis inhibitors” (priority 1997, published 2002) come the findings set out here.

T3 sequence (P23219 24-599): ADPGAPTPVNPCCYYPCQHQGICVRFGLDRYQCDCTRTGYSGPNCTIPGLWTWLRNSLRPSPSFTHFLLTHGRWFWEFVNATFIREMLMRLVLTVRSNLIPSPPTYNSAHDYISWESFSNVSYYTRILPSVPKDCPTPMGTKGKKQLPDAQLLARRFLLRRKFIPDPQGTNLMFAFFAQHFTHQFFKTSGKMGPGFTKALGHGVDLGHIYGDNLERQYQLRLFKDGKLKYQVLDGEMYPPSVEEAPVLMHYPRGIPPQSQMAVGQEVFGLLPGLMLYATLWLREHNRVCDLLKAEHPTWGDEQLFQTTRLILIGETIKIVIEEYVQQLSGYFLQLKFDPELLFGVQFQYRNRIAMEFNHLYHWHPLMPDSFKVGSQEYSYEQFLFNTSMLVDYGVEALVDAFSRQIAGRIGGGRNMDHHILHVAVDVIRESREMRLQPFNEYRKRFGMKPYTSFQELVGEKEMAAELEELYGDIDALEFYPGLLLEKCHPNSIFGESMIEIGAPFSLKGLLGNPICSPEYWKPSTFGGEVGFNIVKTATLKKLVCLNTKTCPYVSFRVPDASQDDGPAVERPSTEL

`CS(=O)(=O)c1ccc(-c2cnn(CC(F)(F)F)c(=O)c2OC2CCCC2)cc1` [Example 85, 2-(2,2,2-Trifluoroethyl)-4-cyclopentyloxy-5-[4-(methylsulfonyl)phenyl]-3(2H)-pyridazinone] showed a melting point of 148 to 150 °C. Further, the IC50 in series [1] was determined as 470 nM.

As for `CC(C)Nc1c(-c2ccc(S(C)(=O)=O)cc2)cnn(CC(F)(F)F)c1=O` [Example 86, 2-(2,2,2-Trifluoroethyl)-4-(2-propylamino)-5-[4-(methylsulfonyl)phenyl]-3(2H)-pyridazinone], in series [1], the inhibition at 0.01 µM turned out to be 47% and the inhibition at 1 µM turned out to be 52%.

In the case of `CS(=O)(=O)c1ccc(-c2cnn(-c3ccc(F)c(Cl)c3)c(=O)c2-c2ccc(Cl)cc2)cc1` [Example 102, 2-(3-Chloro-4-fluorophenyl)-4-(4-chlorophenyl)-5-[4-(methylsulfonyl)phenyl]-3(2H)-pyridazinone], the melting point was 205 °C. Further, the IC50 in series [1] came out at 50 nM.

Consider `NS(=O)(=O)c1ccc(-c2cnn(C3C=CCCC3)c(=O)c2-c2ccc(F)cc2)cc1` (stereo not drawn) [Example 126], for which the IC50 in series [1] came to 50 nM.

Regarding `CS(=O)(=O)c1ccc(-c2cnn(C3CCc4ccccc43)c(=O)c2-c2ccc(F)cc2)cc1` (stereo not drawn) [Example 129, 2-(2,3-Dihydro-1H-inden-1-yl)-4-(4-fluorop,henyl)-5-[4-(methylsulfonyl)phenyl]-3(2H)-pyridazinone], the melting point was 128 to 130 °C. Moreover, the IC50 in series [1] came out at 40 nM.

Take `NS(=O)(=O)c1ccc(-c2cnn(Cc3cc(F)c(F)cc3F)c(=O)c2-c2ccc(F)cc2)cc1` [Example 152, 2-(2,4,5-Trifluorobenzyl)-4-(4-fluorophenyl)-5-[4-(aminosulfonyl)phenyl]-3(2H)-pyridazinone]: the melting point was in the range of 236 to 238 °C. The IC50 in series [1] came out at 29 nM.

`C=Cc1cccc(-n2ncc(-c3ccc(S(C)(=O)=O)cc3)c(-c3ccc(F)cc3)c2=O)c1` [Example 162, 2-(3-Vinylphenyl)-4-(4-fluorophenyl)-5-[4-(methylsulfonyl)phenyl]-3(2H)-pyridazinone] registered a melting point of 182 to 183 °C. Moreover, the IC50 in series [1] came to 34 nM.

With `CS(=O)(=O)c1ccc(-c2cnn(-c3ccc(Cl)cc3F)c(=O)c2-c2ccc(F)cc2)cc1` [Example 191, 2-(4-Chloro-2-fluorophenyl)-4-(4-fluorophenyl)-5-[4-(methylsulfonyl)phenyl]-3(2H)-pyridazinone], the melting point fell in the range of 250 to 260 °C. Moreover, the IC50 in series [1] stood at 60 nM.

Compound `CC(C)Oc1c(-c2ccc(S(C)(=O)=O)cc2)cnn(-c2cccc(Br)c2)c1=O` [Example 203, 2-(3-Bromophenyl)-4-(2-propoxy)-5-[4-(methylsulfonyl)phenyl]-3(2H)-pyridazinone] registered a melting point of 130 to 132 °C. Further, the inhibition at 0.1 µM in series [1] (0.1 μM) is 23%. The inhibition at 1 µM in series [1] stood at 77%.

For `CS(=O)(=O)c1ccc(-c2cnn(-c3cccc(Cl)c3)c(=O)c2COc2ccc(F)cc2)cc1` [Example 207, 2-(3-Chlorophenyl)-4-(4-fluorophenoxmethyl)-5-[4-(methylsulfonyl)phenyl]-3(2H)-pyridazinone], in series [1], the IC50 came to 68 nM. Further, in series [2] (setting [4]), the inhibition at 0.1 µM came to 81% and the inhibition at 1 µM stood at 97%.

For the compound `CS(=O)(=O)c1ccc(-c2cnn(CC(F)(F)F)c(=O)c2OCc2ccco2)cc1` [Example 271, 2-(2,2,2-Trifluoroethyl)-4-(2-furylmethoxy)-5-[4-(methylsulfonyl)phenyl]-3(2H)-pyridazinone], the melting point was in the range of 113 to 115 °C. Also, the inhibition at 0.1 µM in series [1] (0.1 μM) turned out to be 15%. Also, in series [1], the inhibition at 1 µM stood at 52%.

For the compound `CS(=O)(=O)c1ccc(-c2cnn(Cc3ccccc3)c(=O)c2-c2ccsc2)cc1` [Example 317, 2-Benzyl-4-(3-thienyl)-5-[4-(methylsulfonyl)phenyl]-3(2H)-pyridazinone], in series [1], the IC50 came to 27 nM.

As to `CS(=O)(=O)c1ccc(-c2cnn(Cc3ccccc3)c(=O)c2-c2cccc([N+](=O)[O-])c2)cc1` [Example 321, 2-Benzyl-4-(3-nitrophenyl)-5-[4-(methylsulfonyl)phenyl]-3(2H)-pyridazinone], the inhibition at 100 µM in series [3] came out at 4%. Besides, in series [1], the inhibition at 0.01 µM is 50%. Besides, the IC50 in series [2] came out at 192 nM.

Take `COc1ccccc1-c1c(-c2ccc(S(C)(=O)=O)cc2)cnn(Cc2ccccc2)c1=O` [Example 324, 2-Benzyl-4-(2-methoxyphenyl)-5-[4-(methylsulfonyl)phenyl]-3(2H)-pyridazinone]: the IC50 in series [1] came to 47 nM.

In the case of `COc1ccc(-c2c(-c3ccc(S(C)(=O)=O)cc3)cnn(Cc3ccccc3)c2=O)cc1F` [Example 326, 2-Benzyl-4-(3-fluoro-4-methoxyphenyl)-5-[4-(methylsulfonyl)phenyl]-3(2H)-pyridazinone], the IC50 in series [1] is 50 nM.

Turning to `CC(C)CCOc1c(-c2ccc(S(N)(=O)=O)cc2)cnn(C(C)(C)C)c1=O` [Example 399], the “Wish % Inhib. at Dose (μM)” value was 39 @ 0.03% in series [1] (0.03 μM) and 82 @ 0.1% in series [1] (0.1 μM).

Take `C=CCC(C)COc1c(-c2ccc(S(C)(=O)=O)cc2)cnn(-c2ccc(F)cc2)c1=O` (stereo not drawn) [Example 434, 2-(4-Fluorophenyl)-4-(2-methyl-4-pentenyl-1-oxy)-5-[4-(methylsulfonyl)phenyl]-3(2H)-pyridazinone]: the melting point is 106 to 107 °C. The inhibition at 100 µM in series [3] was found to be 0%. Further, the IC50 in series [2] stood at 81 nM.

On to `CC(C)CCCOc1c(-c2ccc(S(C)(=O)=O)cc2)cnn(-c2ccc(F)c(F)c2)c1=O` [Example 437, 2-(3,4-Difluorophenyl)-4-(4-methyl-1-pentyloxy)-5-[4-(methylsulfonyl)phenyl]-3(21)-pyridazinone], for which the melting point was in the range of 98 to 99 °C. For the same compound, the inhibition at 100 µM in series [3] is 16%. In addition, the IC50 in series [2] turned out to be 124 nM.

As for `CC(C)CC(C)Oc1c(-c2ccc(S(C)(=O)=O)cc2)cnn(-c2ccc(F)c(F)c2)c1=O` (stereo not drawn) [Example 438], the melting point fell in the range of 132 to 133 °C. Besides, the inhibition at 100 µM in series [3] was 0%. Further, in series [2], the IC50 was 127 nM.

`CS(=O)(=O)c1ccc(-c2cnn(-c3ccc(F)c(F)c3)c(=O)c2OCCC2C=CCC2)cc1` (stereo not drawn) [Example 440, 2-(3,4-Difluorophenyl)-4-(2-cyclopent-2-enyl-1-ethoxy)-5-[4-(methylsulfonyl)phenyl]-3(2H)-pyridazinone] gave a melting point of 126 to 127 °C. Besides, the inhibition at 100 µM in series [3] was 20%. Moreover, in series [2] (setting [4]), the inhibition at 0.01 µM was determined as 22%, the inhibition at 0.1 µM was 59% and the inhibition at 1 µM came out at 84%.

For the compound `CON=C(Cn1ncc(-c2ccc(S(C)(=O)=O)cc2)c(-c2ccc(F)cc2)c1=O)c1ccccc1` [Example 443, 2-(2-Methoxyimino-2-phenylethyl)-4-(4-fluorophenyl)-5-[4-(methylsulfonyl)phenyl]-3(2H)-pyridazinone], the melting point lay in the range of 95 to 99 °C. Further, the inhibition at 100 µM in series [3] worked out at 35%. Besides, in series [2] (setting [4]), the inhibition at 0.01 µM was 74% and the inhibition at 0.1 µM is 86%.

On to `CC(C)CCCc1c(-c2ccc(S(C)(=O)=O)cc2)cnn(-c2ccc(F)c(F)c2)c1=O` [Example 444, 2-(3,4-Difluorophenyl)-4-(4-methylpentyl)-5-[4-(methylsulfonyl)phenyl]-3(2H)-pyridazinone], for which the melting point lay in the range of 111 to 113 °C. For the same compound, in series [3], the inhibition at 100 µM was 0%. In series [2] (setting [4]), the inhibition at 0.1 µM amounted to 62% and the inhibition at 1 µM was determined as 83%. In addition, the inhibition at 10 µM in series [2] (10 μM, read-out: RHUCX2 % Inh. at Dose) stood at 14%.

Compound `CC(C)CCOc1c(-c2ccc(S(C)(=O)=O)cc2)cnn(CC(F)(F)F)c1=O` [Example 447, 2-(2,2,2-Trifluoroethyl)-4-(3-methylbutoxy)-5-[4-(methylsulfonyl)phenyl]-3(2H)-pyridazinone] yielded a melting point of 111 to 113 °C. Besides, the inhibition at 100 µM in series [3] is 0%. In series [2] (setting [4]), the inhibition at 0.01 µM came to 35%, the inhibition at 0.1 µM was determined as 57% and the inhibition at 1 µM is 90%.
